US10308689B2, “Dengue virus (DV) polypeptide sequences, T cell epitopes and methods and uses thereof” (LA JOLLA INSTITUTE FOR ALLERGY AND IMMUNOLOGY, priority 2010, dated 2019)
Ends that are not written are not given here.

Key:
[1] = system: PBMC of healthy adult blood donors from Colombo, Sri Lanka; assay: Ex vivo IFNγ ELISPOT, HLA-matched PBMC of Sri Lankan blood donors; assay type: cell-based, human; set-up: Total Response per epitope: unit not given here; conditions: for # donors responded: number of donors responding to the epitope; for T cell response [SFC]: ex vivo IFNγ SFC/10^6 PBMC; for # of responders: responding donors, HLA allele(s)
[2] = biological target: purified HLA molecules (corresponding predicted allele); assay: MHC peptide-binding assay, summary over alleles; set-up: species or system human
[3] = restricting HLA allele and serotype as given
[4] = total over responding donors, restricting HLA allele and serotype as given
[5] = IFNγ ELISPOT response summed over responding donors, per epitope
[6] = HLA-matched PBMC, proteome-wide screen
[7] = HLA allele, supertype and serotype
[8] = summed IFNγ ELISPOT response per epitope, HLA allele and serotype as given

| Molecule | # donors responded [1, 3] | T cell response [SFC] ([1]; per epitope) | # of responders [1] | Total Response per epitope [1, 4] | Total Response per epitope [1, 5] | # donors responded [1, 6] | other results |
| --- | --- | --- | --- | --- | --- | --- | --- |
| CC[C@H](C)[C@H](NC(=O)[C@@H]1CCCN1C(=O)CNC(=O)[C@@H](NC(=O)[C@H](C)N)[C@@H](C)O)C(=O)N[C@@H](CC(C)C)C(=O)N[C@H](C(=O)N[C@@H](CC(C)C)C(=O)N[C@@H](Cc1c[nH]c2ccccc12)C(=O)O)[C@@H](C)O | 2 | 938 | 2 | 938.3 |  |  | IC50 ([2]; allele B*5801): 13 nM |
| CC[C@H](C)[C@H](NC(=O)[C@@H]1CCCN1C(=O)CNC(=O)[C@@H](NC(=O)[C@H](C)N)[C@@H](C)O)C(=O)N[C@@H](CO)C(=O)N[C@H](C(=O)N[C@@H](CC(C)C)C(=O)N[C@@H](Cc1c[nH]c2ccccc12)C(=O)O)[C@@H](C)O | 2 | 236 | 2 | 235.5 |  |  | IC50 ([2]; allele B*5801): 1 nM |
| CC(C)C[C@H](NC(=O)[C@@H](NC(=O)[C@H](Cc1c[nH]c2ccccc12)NC(=O)[C@H](C)NC(=O)[C@H](CO)NC(=O)[C@H](C)NC(=O)[C@@H]1CCCN1C(=O)[C@@H](N)Cc1c[nH]cn1)[C@@H](C)O)C(=O)N[C@@H](Cc1ccc(O)cc1)C(=O)O | 3 |  |  | 281.7 |  |  | IC50 ([2]; allele B*3501): 6 nM |
| CC[C@H](C)[C@H](N)C(=O)N[C@@H](CS)C(=O)N[C@@H](CO)C(=O)N[C@@H](C)C(=O)N[C@H](C(=O)N1CCC[C@H]1C(=O)N[C@H](C(=O)N[C@@H](Cc1c[nH]cn1)C(=O)N[C@@H](Cc1c[nH]c2ccccc12)C(=O)O)C(C)C)C(C)C | 1 |  |  | 115.0 |  |  | IC50 ([2]; allele B*5801): 6 nM |
| CC[C@H](C)[C@H](NC(=O)[C@H](CCC(N)=O)NC(=O)[C@@H](N)CCCCN)C(=O)N[C@@H](C)C(=O)N[C@@H](CC(N)=O)C(=O)N[C@@H](CCC(=O)O)C(=O)N[C@@H](CC(C)C)C(=O)N[C@@H](CC(N)=O)C(=O)N[C@@H](Cc1ccc(O)cc1)C(=O)O | 1 |  |  | 26.7 |  |  | IC50 ([2]; allele B*1501): 9 nM |
| CSCC[C@H](NC(=O)[C@@H](NC(=O)[C@H](Cc1c[nH]cn1)NC(=O)[C@H](Cc1ccccc1)NC(=O)[C@@H](NC(=O)CNC(=O)[C@H](CCC(=O)O)NC(=O)[C@@H](N)CCSC)C(C)C)[C@@H](C)O)C(=O)N[C@@H](Cc1c[nH]c2ccccc12)C(=O)O |  |  |  |  |  |  | IC50 ([2]; allele B*4403): 3 nM |
| CC[C@H](C)[C@H](NC(=O)CNC(=O)[C@H](CCC(=O)O)NC(=O)CNC(=O)[C@H](CCC(=O)O)NC(=O)[C@H](CCSC)NC(=O)[C@H](CCC(N)=O)NC(=O)[C@@H](N)CCCNC(=N)N)C(=O)N[C@@H](Cc1ccccc1)C(=O)O |  |  |  |  | 108.3 | 1 | IC50 ([2]; allele B*1501): 6 nM |
| CSCC[C@H](NC(=O)[C@H](CCC(N)=O)NC(=O)[C@@H](N)CCCNC(=N)N)C(=O)N[C@@H](CCC(=O)O)C(=O)NCC(=O)N[C@@H](CCC(=O)O)C(=O)NCC(=O)N[C@H](C(=O)N[C@@H](CC(C)C)C(=O)O)C(C)C |  |  |  |  | 56.7 | 1 | IC50 ([2]; allele B*1501): 19 nM |
| CSCC[C@H](NC(=O)[C@H](CCCCN)NC(=O)[C@H](CC(C)C)NC(=O)[C@@H](NC(=O)[C@@H](N)CCCNC(=N)N)C(C)C)C(=O)N[C@H](C(=O)N[C@@H](CCC(=O)O)C(=O)N1CCC[C@H]1C(=O)N[C@@H](Cc1c[nH]c2ccccc12)C(=O)O)C(C)C |  |  |  |  | 150.0 | 1 | IC50 ([2]; allele B*5801): 1 nM |
| CC[C@H](C)[C@H](NC(=O)CNC(=O)[C@H](CCC(=O)O)NC(=O)[C@@H]1CCCN1C(=O)[C@@H](N)[C@@H](C)O)C(=O)N[C@H](C(=O)N1CCC[C@H]1C(=O)N[C@@H](CO)C(=O)N[C@@H](CCSC)C(=O)O)[C@@H](C)CC |  | 2717 | 5 |  | 2716.7 | 5 | IC50 ([2]; allele B*3501): 8 nM |
| CC(C)C[C@H](NC(=O)[C@H](CCC(N)=O)NC(=O)[C@@H](NC(=O)[C@H](Cc1ccc(O)cc1)NC(=O)[C@@H](N)C(C)C)[C@@H](C)O)C(=O)N[C@@H](CS)C(=O)N[C@@H](CC(=O)O)C(=O)N[C@@H](Cc1c[nH]cn1)C(=O)N[C@@H](CCCNC(=N)N)C(=O)O |  |  |  |  |  |  | # donors responded [1, 7]: 1; Total Response per epitope [1, 8]: 35.0; IC50 ([2]; allele A*3301): 1900 nM |
| CC(C)[C@H](NC(=O)[C@H](CCC(=O)O)NC(=O)[C@H](Cc1ccc(O)cc1)NC(=O)[C@H](CO)NC(=O)CNC(=O)[C@H](Cc1c[nH]cn1)NC(=O)[C@H](Cc1ccc(O)cc1)NC(=O)[C@H](C)NC(=O)[C@@H](N)Cc1c[nH]c2ccccc12)C(=O)O |  |  |  |  |  |  | # donors responded [1, 7]: 1; Total Response per epitope [1, 8]: 25.0; IC50 ([2]; allele B*5101): 11 nM |
| ATGPITTLW | 1 | 505 | 1 | 505.0 |  |  | IC50 ([2]; allele B*5801): 5 nM |
| DPASIAARGY | 9 | 2383 | 9 | 2383.3 |  |  | IC50 ([2]; allele B*3501): 5620 nM |
| GEGLHKLGY | 2 |  |  | 413.3 |  |  | IC50 ([2]; allele B*4403): 281 nM |
| KVRKDIQQW |  |  |  |  | 38.3 | 1 | IC50 ([2]; allele B*5701): 15 nM |
| LPVWLAYKVA |  | 2427 | 7 |  | 2426.7 | 7 | IC50 ([2]; allele B*3501): 5100 nM |
| LWEGSPGKF |  |  |  |  | 25.0 | 1 | IC50 ([2]; allele A*2402): 6160 nM |
| MALKDFKEF |  |  |  |  |  |  | IC50 ([2]; allele B*3501): 77 nM |
| MALSIVSLF | 1 |  |  | 48.3 |  |  | IC50 ([2]; allele B*5101): 605 nM |
| MAVGMVSIL |  |  |  |  | 361.7 | 5 | IC50 ([2]; allele B*3501): 10 nM |
| MEITAEWLW |  | 583 | 1 |  | 583.3 | 1 | IC50 ([2]; allele B*5801): 5 nM |
| VPLLAMGCY |  | 1083 | 1 |  |  |  | # donors responded [1, 7]: 1; Total Response per epitope [1, 8]: 1083.3 |
| WHYDQDHPY |  |  |  |  |  |  | IC50 ([2]; allele B*3501): 7600 nM |
| YAQMWQLMYF |  |  |  |  | 135.0 | 1 |  |
| YTPEGIIPTL |  | 872 | 1 |  |  |  | # donors responded [1, 7]: 1; Total Response per epitope [1, 8]: 871.7 |
